Common to all, as to type: binding
One assay addresses T1, VdesOBP2 (Varroa destructor, UniProt A0A7M7JBN7).
T1 sequence (A0A7M7JBN7 16-163 limits assumed): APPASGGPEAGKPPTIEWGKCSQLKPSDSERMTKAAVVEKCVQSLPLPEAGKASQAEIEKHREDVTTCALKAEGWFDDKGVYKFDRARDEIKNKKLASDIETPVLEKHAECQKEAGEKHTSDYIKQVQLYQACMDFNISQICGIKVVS
The assay is described as follows: intrinsic tryptophan fluorescence quenching. The settings on record: excitation 295 nm, emission 335-340 nm.

Another assay concerns the target T2, VdesOBP1 (Varroa destructor, UniProt A0A7M7KVA6).
T2 construct: 147 residues; monomer
T2 sequence (A0A7M7KVA6 16-162): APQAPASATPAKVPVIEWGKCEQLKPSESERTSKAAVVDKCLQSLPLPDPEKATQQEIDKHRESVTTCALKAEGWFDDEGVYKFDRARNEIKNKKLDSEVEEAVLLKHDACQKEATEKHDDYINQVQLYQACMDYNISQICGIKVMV
The assay is described as follows: intrinsic tryptophan fluorescence quenching.

In another assay the target is T3, VdesOBP5 (Varroa destructor, UniProt A0A7M7KHR4).
T3 sequence (A0A7M7KHR4 22-231): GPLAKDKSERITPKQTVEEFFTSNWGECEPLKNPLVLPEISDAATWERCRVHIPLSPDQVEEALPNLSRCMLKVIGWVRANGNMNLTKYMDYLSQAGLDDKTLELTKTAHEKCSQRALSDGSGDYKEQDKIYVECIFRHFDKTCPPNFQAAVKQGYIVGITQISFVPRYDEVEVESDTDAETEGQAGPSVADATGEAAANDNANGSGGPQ
Put plainly: fluorescent probe titration. Conditions: read-out: KNPN. From the text: fluorescent probe titration on VdesOBP5 | with VdesOBP4 and VdesOBP5 we obtained clear binding curves using 1-NPN as the fluorescent reporter

Setting [1] is: excitation 295 nm, emission 335-340 nm.

The values below come from PMC8222343, “A new non-classical fold of varroa odorant-binding proteins reveals a wide open internal cavity” (Scientific Reports, 2021).

SMILES strings stand for the structures. pKd: −log10 of the molar value.

With `COc1cc(/C=C/C=O)ccc1O` [coniferyl aldehyde], the “quenching of intrinsic tryptophan fluorescence” value (“quenching” below) on VdesOBP2 is “they determined significant quenching of intrinsic tryptophan fluorescence in VdesOBP1 and VdesOBP2”; on VdesOBP1 (setting [1]), “they determined significant quenching of intrinsic tryptophan fluorescence in VdesOBP1 and VdesOBP2”.
Regarding `COc1cc(C=O)ccc1O` [vanillin], the “quenching” value is “they determined significant quenching of intrinsic tryptophan fluorescence in VdesOBP1 and VdesOBP2” at VdesOBP2; “they determined significant quenching of intrinsic tryptophan fluorescence in VdesOBP1 and VdesOBP2” on VdesOBP1 (setting [1]).
`CC1=C(C=O)C(C)(C)CC=C1` [safranal]: the “quenching” value is “they determined significant quenching of intrinsic tryptophan fluorescence in VdesOBP1 and VdesOBP2” at VdesOBP2; “they determined significant quenching of intrinsic tryptophan fluorescence in VdesOBP1 and VdesOBP2” on VdesOBP1 (setting [1]).
Consider `c1ccc(Nc2cccc3ccccc23)cc1` [N-phenyl-1-naphthylamine], for which the “quenching” value at VdesOBP1 (dose-dependent quenching, probe emission itself unchanged) is “we observed a dose-dependent quenching of the intrinsic tryptophan fluorescence”. At VdesOBP5, the pKd is 5.37.
